# Assay results reported in publication doi:10.1101/2023.02.14.528391v1 (biorxiv, 2023).
# Tests used:
# hERG potassium channel [1] = target: T1, hERG potassium channel (Homo sapiens, UniProt Q12809); test: biochemical; details: hERG / Ki (nM)
# hERG potassium channel [2] = target: T1, hERG potassium channel; test: biochemical; details: hERG / IC50 (nM)
# hERG potassium channel [3] = target: T1, hERG potassium channel; test: in vitro; details: % inhibition
# hERG potassium channel [4] = target: T1, hERG potassium channel; test: radioligand competition binding, membranes
# T1 sequence (Q12809 whole entry): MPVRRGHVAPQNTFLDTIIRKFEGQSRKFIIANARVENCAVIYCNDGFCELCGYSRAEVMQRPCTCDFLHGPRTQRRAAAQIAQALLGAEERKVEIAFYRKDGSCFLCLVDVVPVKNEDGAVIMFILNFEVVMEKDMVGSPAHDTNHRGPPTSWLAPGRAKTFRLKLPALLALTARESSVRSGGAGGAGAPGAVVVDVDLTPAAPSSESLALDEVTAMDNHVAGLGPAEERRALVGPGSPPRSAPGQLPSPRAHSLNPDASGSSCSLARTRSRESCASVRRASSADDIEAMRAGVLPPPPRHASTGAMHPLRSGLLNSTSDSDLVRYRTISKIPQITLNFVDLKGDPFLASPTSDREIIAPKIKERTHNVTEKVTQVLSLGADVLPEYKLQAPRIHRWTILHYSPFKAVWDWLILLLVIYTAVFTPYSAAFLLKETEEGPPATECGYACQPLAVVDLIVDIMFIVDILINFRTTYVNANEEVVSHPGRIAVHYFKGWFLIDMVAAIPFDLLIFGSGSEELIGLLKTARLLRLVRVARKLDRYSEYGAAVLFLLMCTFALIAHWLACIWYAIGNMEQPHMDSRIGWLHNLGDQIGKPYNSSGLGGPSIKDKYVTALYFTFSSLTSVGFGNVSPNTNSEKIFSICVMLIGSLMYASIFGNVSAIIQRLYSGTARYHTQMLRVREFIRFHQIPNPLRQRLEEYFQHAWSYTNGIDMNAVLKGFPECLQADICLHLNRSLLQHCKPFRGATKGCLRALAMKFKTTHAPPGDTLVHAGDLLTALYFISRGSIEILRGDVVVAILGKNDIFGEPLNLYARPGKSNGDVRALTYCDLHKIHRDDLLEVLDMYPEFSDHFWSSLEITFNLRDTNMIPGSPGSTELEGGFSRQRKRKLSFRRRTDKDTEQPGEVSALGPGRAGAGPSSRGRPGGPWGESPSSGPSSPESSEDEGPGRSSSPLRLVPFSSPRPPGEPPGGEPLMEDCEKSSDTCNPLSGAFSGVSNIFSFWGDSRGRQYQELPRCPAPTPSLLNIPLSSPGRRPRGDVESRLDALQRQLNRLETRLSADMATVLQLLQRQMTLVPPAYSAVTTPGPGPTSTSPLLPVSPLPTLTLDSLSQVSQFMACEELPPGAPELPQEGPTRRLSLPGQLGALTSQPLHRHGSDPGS
SMILES,Ki (hERG potassium channel [1]; Synthesis=Enamine) [nM],IC50 (hERG potassium channel [2]; Synthesis=Enamine) [nM],inhibition at 10 µM (hERG potassium channel [3]) [%],IC50 (hERG potassium channel [2]; Synthesis=NBI) [nM],Ki (hERG potassium channel [4]) [nM],Ki (hERG potassium channel [1]; Synthesis=NBI) [nM]
CN(C)CCN(Cc1ccccc1F)C(=O)N1CCCc2c(Cl)ccnc21 [s_272164____17323936____17325014],300,425,90.6,–,–,–
"CN(C)CCCc1nc2ccccc2n1Cc1ccccc1 [compound 5, GMD_18471]",–,–,88.9,565,400,–
CN(C)CCCn1nc(-c2ccc(Cl)cc2)c2ccccc2c1=O [GMD_12503],–,–,72.4,1220,–,866
CN(C)CCCn1nc(-c2cncc(Cl)c2)c2ccccc2c1=O [GMD_27933],–,–,80.4,968,–,684
CN(C)CCN(C)c1nc2ccccc2n1Cc1ccccc1F [GMD_15306],–,–,40.7,3040,–,2150
CN(C)CCn1nc(-c2ccc(Cl)cc2)c2ccccc2c1=O [NBI1099469],–,–,71.7,1740,–,1230
CN(C)CCCN(Cc1ccc(Cl)c(Cl)c1)c1ncc(Cl)cc1[N+](=O)[O-] [s_27____7425384____7556080],729,1030,78.8,–,–,–
CN(C)CCn1nc(-c2ccccc2Cl)c2ccccc2c1=O [GMD_12767],–,–,84.2,1590,–,1120
CN(C)CCCN(Cc1ccc(Cl)c(Cl)c1)c1ncnc2ccn(C)c12 [m_27____7425384____18313558],604,854,75.9,–,–,–
CN(C)CCN(Cc1cccc(Cl)c1)c1nccc2cnccc12 [s_27____7100894____16733638],84,119,99.7,–,–,–
CN(C)CCn1c(-c2ccccc2Cl)nc2ccccc21 [s_60____1081314____90809],4990,7050,2.2,–,–,–
CSc1nccc(N(CCCN(C)C)Cc2ccc(Cl)c(Cl)c2)n1 [s_27____7425384____15607934],772,1090,86.6,–,–,–
CN(C)CCN(Cc1ccccc1F)Cc1c(Cl)ccc2cccnc12 [s_270004____10205940____8625260],58.3,82.5,88.9,–,–,–
CN(C)CCCn1nc(-c2cccc(Cl)c2)c2ccccc2c1=O [GMD_9433],–,–,92.5,721,–,510
CN(C)CCN(Cc1cccc(Cl)c1)c1cncc(Cl)n1 [s_27____7100894____215633],1180,1660,78.1,–,–,–
CN(C)CCN(Cc1ccccc1F)C(=O)c1csc2ccccc12 [s_527____7348186____205300],4980,7040,55.6,–,–,–
CN(C)CCCN(Cc1ccc(Cl)c(Cl)c1)c1nccc2cccnc12 [s_27____7425384____16803680],64.9,91.8,96.3,–,–,–

SMILES,Ki (hERG potassium channel [1]; Synthesis=Enamine) [nM],IC50 (hERG potassium channel [2]; Synthesis=Enamine) [nM],inhibition at 10 µM (hERG potassium channel [3]) [%],IC50 (hERG potassium channel [2]; Synthesis=NBI) [nM],Ki (hERG potassium channel [4]) [nM],Ki (hERG potassium channel [1]; Synthesis=NBI) [nM]
CN(C)CCCn1nc(-c2cccnc2)c2ccccc2c1=O [GMD_11677],–,–,31.1,11100,–,7870
CSc1ncccc1-c1nn(CCCN(C)C)c(=O)c2ccccc12 [NBI1100649],–,–,28.2,8700,–,6150
CN(C)CCN(Cc1cccc(Cl)c1)c1ncncc1Cl [s_27____7100894____9139880],507,717,91.6,–,–,–
CN(C)CCCn1nc(-c2ccccc2)c2ccccc2c1=O [GMD_14496],–,–,54.2,3580,–,2530
"CN(C)CCCn1nc(-c2ccc(F)cc2)c2ccccc2c1=O [compound 1, s_49__14518112__1114614]",–,–,–,–,1490,–
CN(C)CCCn1nc(-c2ccccn2)c2ccccc2c1=O [GMD_13497],–,–,33.6,6070,–,4300
"CN(C)CCN(Cc1ccccc1)c1nc2cccc(F)c2s1 [compound 4, s_27__7100858__10689034]",–,–,–,–,1590,–
"CN(C)CCCn1nc(-c2cccs2)c2ccccc2c1=O [compound 2, s_49__14518112__101877]",–,–,–,–,946,–
CCc1csc(N(CCCN(C)C)Cc2ccc(Cl)c(Cl)c2)n1 [s_27____7425384____12641810],757,1070,86.2,–,–,–
CN(C)CCCn1nc(-c2ccccc2)c2ccccc2c1=O [s_49____14518112____88928],2620,3710,–,–,–,–
CN(C)CCCN(CCCN(C)C)c1ccc2c(Br)ccc(Cl)c2n1 [s_27____6492506____8281582],2300,3250,69,–,–,–
CN(C)CCN(Cc1cccs1)c1nccc(F)c1Cl [s_27____7100914____15703356],5180,7320,55.7,–,–,–
CN(C)CCN(Cc1ccccc1)Cc1nc2ccccc2n1C [s_270004____10205888____7548808],1050,1480,75,–,–,–
CN(C)CCn1nc(-c2cccc(Cl)c2)c2ccccc2c1=O [GMD_13630],–,–,79.1,2420,–,1710
CN(C)CCN(Cc1cccs1)c1ccncc1Cl [s_27____7100914____16711384],6060,8570,49.5,–,–,–
CN(C)CCN(Cc1cccc(F)c1)Cc1c(Cl)ccc2cccnc12 [s_270004____10206024____8625260],110,156,97,–,–,–
"CN(C)CCCn1nc(-c2ccc(Cl)cc2)c2ccccc2c1=O [compound 3, s_49__14518112__88929]",–,–,–,–,643,–
